Measured values from patent publication US5919771A, “Urea and thiourea derivatives of glycopeptides” (Eli Lilly and Company, priority 1998, dated 1999).

Experiments:
Format in all cases: cell-based
[1] = system: Staphylococcus haemolyticus 415; experiment: MIC, standard broth micro-dilution assay, SH 415
Procedure: (§1) The antibacterial efficacy of the present compounds is illustrated by Table II. The minimal inhibitory concentrations (MICs) were determined using a standard broth micro-dilution assay.

[2] = system: Streptococcus pneumoniae P1; experiment: MIC, standard broth micro-dilution assay, SPN P1
Procedure: as §1

[3] = system: Staphylococcus aureus 446; experiment: MIC, standard broth micro-dilution assay, SA 446
Procedure: as §1

[4] = system: Staphylococcus haemolyticus 105; experiment: MIC, standard broth micro-dilution assay, SH 105
Procedure: as §1

[5] = system: Staphylococcus aureus 489; experiment: MIC, standard broth micro-dilution assay, SA 489
Procedure: as §1

[6] = system: Enterococcus faecium and faecalis (RESISTANT); settings: geometric mean of 4-6 isolates
Procedure: as §1

[7] = system: Enterococcus faecium and faecalis (SENSITIVE); settings: geometric mean of 4-6 isolates
Procedure: as §1

[8] = system: Staphylococcus aureus 447; experiment: MIC, standard broth micro-dilution assay, SA 447
Procedure: as §1

[9] = system: Streptococcus pyogenes C203; experiment: MIC, standard broth micro-dilution assay, SPY C203
Procedure: as §1

[10] = system: Staphylococcus epidermidis 270; experiment: MIC, standard broth micro-dilution assay, SE 270
Procedure: as §1

CC(C)CC(C(=O)NC1C(=O)NC(CC(N)=O)C(=O)NC2C(=O)NC3C(=O)NC(C(=O)NC(C(=O)O)c4cc(O)cc(O)c4-c4cc3ccc4O)C(OC3CC(C)(N)C(O)C(C)O3)c3ccc(c(Cl)c3)Oc3cc2cc(c3OC2OC(CO)C(O)C(O)C2OC2CC(C)(NCc3ccc(-c4ccc(Cl)cc4)cc3)C(O)C(C)O2)Oc2ccc(cc2Cl)C1O)N(C)C(=S)Nc1ccccc1 (centres unmarked) [Example 22, N^LEU -(PHENYLTHIOCARBAMOYL)-N^DISACC -(p-(p-CHLOROPHENYL)-BENZYL)A82846B]
Minimal Inhibitory Concentration (MIC) SH 415 [1]: 2 | Minimal Inhibitory Concentration (MIC) SPN P1 [2]: ≤ .06 | Minimal Inhibitory Concentration (MIC) SA 446 [3]: 2 | Minimal Inhibitory Concentration (MIC) SH 105 [4]: 1 | Minimal Inhibitory Concentration (MIC) SA 489 [5]: 1 | Minimal Inhibitory Concentration (MIC) RESISTANT [6]: 6.7 | Minimal Inhibitory Concentration (MIC) SENSITIVE [7]: 2.6 | Minimal Inhibitory Concentration (MIC) SA 447 [8]: 1 | Minimal Inhibitory Concentration (MIC) SPY C203 [9]: ≤ .06 | Minimal Inhibitory Concentration (MIC) SE 270 [10]: 0.5

CC(C)CC(C(=O)NC1C(=O)NC(CC(N)=O)C(=O)NC2C(=O)NC3C(=O)NC(C(=O)NC(C(=O)O)c4cc(O)cc(O)c4-c4cc3ccc4O)C(OC3CC(C)(N)C(O)C(C)O3)c3ccc(c(Cl)c3)Oc3cc2cc(c3OC2OC(CO)C(O)C(O)C2OC2CC(C)(NCc3ccc(Oc4ccccc4)cc3)C(O)C(C)O2)Oc2ccc(cc2Cl)C1O)N(C)C(=S)Nc1ccc(OCc2ccccc2)cc1 (centres unmarked) [Example 20, N^LEU -((p-(BENZYLOXY)PHENYL)-THIOCARBAMOYL)-N^DISACC -(p-PHENOXYBENZYL)A82846B]
Minimal Inhibitory Concentration (MIC) SH 415 [1]: 2 | Minimal Inhibitory Concentration (MIC) SPN P1 [2]: 4 | Minimal Inhibitory Concentration (MIC) SA 446 [3]: 4 | Minimal Inhibitory Concentration (MIC) SH 105 [4]: 2 | Minimal Inhibitory Concentration (MIC) SA 489 [5]: 2 | Minimal Inhibitory Concentration (MIC) RESISTANT [6]: 9.5 | Minimal Inhibitory Concentration (MIC) SENSITIVE [7]: 5.6 | Minimal Inhibitory Concentration (MIC) SA 447 [8]: 2 | Minimal Inhibitory Concentration (MIC) SPY C203 [9]: ≤ 0.06 | Minimal Inhibitory Concentration (MIC) SE 270 [10]: 1

CC(C)CC(C(=O)NC1C(=O)NC(CC(N)=O)C(=O)NC2C(=O)NC3C(=O)NC(C(=O)NC(C(=O)O)c4cc(O)cc(O)c4-c4cc3ccc4O)C(OC3CC(C)(N)C(O)C(C)O3)c3ccc(c(Cl)c3)Oc3cc2cc(c3OC2OC(CO)C(O)C(O)C2OC2CC(C)(N)C(O)C(C)O2)Oc2ccc(cc2Cl)C1O)N(C)C(=S)Nc1cccc2ccccc12 (centres unmarked) [Example 5, N^LEU -(1-NAPHTHYLTHIOCARBAMOYL)A82846B]
Minimal Inhibitory Concentration (MIC) SH 415 [1]: > 64 | Minimal Inhibitory Concentration (MIC) SPN P1 [2]: 1 | Minimal Inhibitory Concentration (MIC) SA 446 [3]: 8 | Minimal Inhibitory Concentration (MIC) SH 105 [4]: 64 | Minimal Inhibitory Concentration (MIC) SA 489 [5]: > 64 | Minimal Inhibitory Concentration (MIC) RESISTANT [6]: > 128 | Minimal Inhibitory Concentration (MIC) SENSITIVE [7]: 9.5 | Minimal Inhibitory Concentration (MIC) SA 447 [8]: 8 | Minimal Inhibitory Concentration (MIC) SPY C203 [9]: 0.5 | Minimal Inhibitory Concentration (MIC) SE 270 [10]: 32

CC(C)CC(C(=O)NC1C(=O)NC(CC(N)=O)C(=O)NC2C(=O)NC3C(=O)NC(C(=O)NC(C(=O)O)c4cc(O)cc(O)c4-c4cc3ccc4O)C(OC3CC(C)(N)C(O)C(C)O3)c3ccc(c(Cl)c3)Oc3cc2cc(c3OC2OC(CO)C(O)C(O)C2OC2CC(C)(N)C(O)C(C)O2)Oc2ccc(cc2Cl)C1O)N(C)C(=O)Nc1ccccc1 (centres unmarked) [Example 23, N^LEU -(PHENYLCARBAMOYL)A82846B]
Minimal Inhibitory Concentration (MIC) SH 415 [1]: 64 | Minimal Inhibitory Concentration (MIC) SA 446 [3]: 4 | Minimal Inhibitory Concentration (MIC) SH 105 [4]: 0.5 | Minimal Inhibitory Concentration (MIC) SA 489 [5]: 1 | Minimal Inhibitory Concentration (MIC) RESISTANT [6]: > 128 | Minimal Inhibitory Concentration (MIC) SENSITIVE [7]: 5.3 | Minimal Inhibitory Concentration (MIC) SA 447 [8]: 4 | Minimal Inhibitory Concentration (MIC) SE 270 [10]: 4

CC(C)C[C@H](C(=O)N[C@H]1C(=O)N[C@@H](CC(N)=O)C(=O)N[C@H]2C(=O)N[C@H]3C(=O)N[C@H](C(=O)N[C@H](C(=O)O)c4cc(O)cc(O)c4-c4cc3ccc4O)[C@H](O[C@H]3C[C@](C)(N)[C@@H](O)[C@H](C)O3)c3ccc(c(Cl)c3)Oc3cc2cc(c3O[C@@H]2O[C@H](CO)[C@@H](O)[C@H](O)[C@H]2O[C@H]2C[C@](C)(NCc3ccc(Oc4ccccc4)cc3)[C@@H](O)[C@H](C)O2)Oc2ccc(cc2Cl)[C@H]1O)N(C)C(=S)Nc1ccccc1 [Example 3, N^LEU -(PHENYLTHIOCARBAMOYL)-N^DISACC -(p-PHENOXYBENZYL)-A82846B]
Minimal Inhibitory Concentration (MIC) SH 415 [1]: 2 | Minimal Inhibitory Concentration (MIC) SA 446 [3]: 4 | Minimal Inhibitory Concentration (MIC) SH 105 [4]: 2 | Minimal Inhibitory Concentration (MIC) SA 489 [5]: 2 | Minimal Inhibitory Concentration (MIC) RESISTANT [6]: 16 | Minimal Inhibitory Concentration (MIC) SENSITIVE [7]: 1.7 | Minimal Inhibitory Concentration (MIC) SA 447 [8]: 1 | Minimal Inhibitory Concentration (MIC) SPY C203 [9]: ≤ .06 | Minimal Inhibitory Concentration (MIC) SE 270 [10]: 1

COc1ccc(NC(=S)N(C)C(CC(C)C)C(=O)NC2C(=O)NC(CC(N)=O)C(=O)NC3C(=O)NC4C(=O)NC(C(=O)NC(C(=O)O)c5cc(O)cc(O)c5-c5cc4ccc5O)C(OC4CC(C)(N)C(O)C(C)O4)c4ccc(c(Cl)c4)Oc4cc3cc(c4OC3OC(CO)C(O)C(O)C3OC3CC(C)(N)C(O)C(C)O3)Oc3ccc(cc3Cl)C2O)cc1 (centres unmarked) [Example 9, N^LEU -((p-METHOXYPHENYL)-THIOCARBAMOYL)A82846B]
Minimal Inhibitory Concentration (MIC) SH 415 [1]: 32 | Minimal Inhibitory Concentration (MIC) SA 446 [3]: 8 | Minimal Inhibitory Concentration (MIC) SH 105 [4]: 32 | Minimal Inhibitory Concentration (MIC) SA 489 [5]: 4 | Minimal Inhibitory Concentration (MIC) RESISTANT [6]: > 128 | Minimal Inhibitory Concentration (MIC) SENSITIVE [7]: 21 | Minimal Inhibitory Concentration (MIC) SA 447 [8]: 8 | Minimal Inhibitory Concentration (MIC) SE 270 [10]: 16

CC(C)CC(C(=O)NC1C(=O)NC(CC(N)=O)C(=O)NC2C(=O)NC3C(=O)NC(C(=O)NC(C(=O)O)c4cc(O)cc(O)c4-c4cc3ccc4O)C(OC3CC(C)(N)C(O)C(C)O3)c3ccc(c(Cl)c3)Oc3cc2cc(c3OC2OC(CO)C(O)C(O)C2OC2CC(C)(NCc3ccc(Oc4ccccc4)cc3)C(O)C(C)O2)Oc2ccc(cc2Cl)C1O)N(C)C(=O)Nc1ccccc1 (centres unmarked) [Example 24, N^LEU -(PHENYLCARBAMOYL)-N^DISACC -(p-PHENOXYBENZYL)A82846B]
Minimal Inhibitory Concentration (MIC) SH 415 [1]: 1 | Minimal Inhibitory Concentration (MIC) SA 446 [3]: 2 | Minimal Inhibitory Concentration (MIC) SH 105 [4]: 0.25 | Minimal Inhibitory Concentration (MIC) SA 489 [5]: 1 | Minimal Inhibitory Concentration (MIC) RESISTANT [6]: 16 | Minimal Inhibitory Concentration (MIC) SENSITIVE [7]: 0.87 | Minimal Inhibitory Concentration (MIC) SA 447 [8]: 1 | Minimal Inhibitory Concentration (MIC) SE 270 [10]: 1

CCCCc1ccc(CNC2(C)CC(OC3C(Oc4c5cc6cc4Oc4ccc(cc4Cl)C(OC4CC(C)(N)C(O)C(C)O4)C4NC(=O)C(NC(=O)C6NC(=O)C(CC(N)=O)NC(=O)C(NC(=O)C(CC(C)C)N(C)C(=S)Nc6ccccc6)C(O)c6ccc(c(Cl)c6)O5)c5ccc(O)c(c5)-c5c(O)cc(O)cc5C(C(=O)O)NC4=O)OC(CO)C(O)C3O)OC(C)C2O)cc1 (centres unmarked) [Example 21, N^LEU -(PHENYLTHIOCARBAMOYL)-N^DISACC -(p-n-BUTYLBENZYL)-A82846B]
Minimal Inhibitory Concentration (MIC) RESISTANT [6]: 32 | Minimal Inhibitory Concentration (MIC) SENSITIVE [7]: 2.6

CC(C)CC(C(=O)NC1C(=O)NC(CC(N)=O)C(=O)NC2C(=O)NC3C(=O)NC(C(=O)NC(C(=O)O)c4cc(O)cc(O)c4-c4cc3ccc4O)C(OC3CC(C)(N)C(O)C(C)O3)c3ccc(c(Cl)c3)Oc3cc2cc(c3OC2OC(CO)C(O)C(O)C2OC2CC(C)(N)C(O)C(C)O2)Oc2ccc(cc2Cl)C1O)N(C)C(=S)Nc1ccc(Cl)cc1 (centres unmarked) [Example 8, N^LEU -((p-CHLOROPHENYL)-THIOCARBAMOYL)A82846B]
Minimal Inhibitory Concentration (MIC) SH 415 [1]: 64 | Minimal Inhibitory Concentration (MIC) SA 446 [3]: 2 | Minimal Inhibitory Concentration (MIC) SH 105 [4]: 16 | Minimal Inhibitory Concentration (MIC) SA 489 [5]: 2 | Minimal Inhibitory Concentration (MIC) RESISTANT [6]: > 128 | Minimal Inhibitory Concentration (MIC) SENSITIVE [7]: 8 | Minimal Inhibitory Concentration (MIC) SA 447 [8]: 4 | Minimal Inhibitory Concentration (MIC) SE 270 [10]: 8

COc1ccc(NC(=S)N(C)C(CC(C)C)C(=O)NC2C(=O)NC(CC(N)=O)C(=O)NC3C(=O)NC4C(=O)NC(C(=O)NC(C(=O)O)c5cc(O)cc(O)c5-c5cc4ccc5O)C(OC4CC(C)(N)C(O)C(C)O4)c4ccc(c(Cl)c4)Oc4cc3cc(c4OC3OC(CO)C(O)C(O)C3OC3CC(C)(NCc4ccc(Oc5ccccc5)cc4)C(O)C(C)O3)Oc3ccc(cc3Cl)C2O)cc1 (centres unmarked) [Example 11, N^LEU -((p-METHOXYPHENYL)-THIOCARBAMOYL)-N^DISACC -(p-PHENOXYBENZYL)A82846B]
Minimal Inhibitory Concentration (MIC) SH 415 [1]: 2 | Minimal Inhibitory Concentration (MIC) SA 446 [3]: 4 | Minimal Inhibitory Concentration (MIC) SH 105 [4]: 1 | Minimal Inhibitory Concentration (MIC) SA 489 [5]: 2 | Minimal Inhibitory Concentration (MIC) RESISTANT [6]: 38 | Minimal Inhibitory Concentration (MIC) SENSITIVE [7]: 2.6 | Minimal Inhibitory Concentration (MIC) SA 447 [8]: 2 | Minimal Inhibitory Concentration (MIC) SE 270 [10]: 2

CC(C)CC(C(=O)NC1C(=O)NC(CC(N)=O)C(=O)NC2C(=O)NC3C(=O)NC(C(=O)NC(C(=O)O)c4cc(O)cc(O)c4-c4cc3ccc4O)C(OC3CC(C)(N)C(O)C(C)O3)c3ccc(c(Cl)c3)Oc3cc2cc(c3OC2OC(CO)C(O)C(O)C2OC2CC(C)(NCc3ccc(Oc4ccccc4)cc3)C(O)C(C)O2)Oc2ccc(cc2Cl)C1O)N(C)C(=S)Nc1ccc(Cl)cc1 (centres unmarked) [Example 10, N^LEU -((p-CHLOROPHENYL)-THIOCARBAMOYL)-N^DISACC -(p-PHENOXYBENZYL)A82846B]
Minimal Inhibitory Concentration (MIC) SH 415 [1]: 2 | Minimal Inhibitory Concentration (MIC) SA 446 [3]: 4 | Minimal Inhibitory Concentration (MIC) SH 105 [4]: 1 | Minimal Inhibitory Concentration (MIC) SA 489 [5]: 2 | Minimal Inhibitory Concentration (MIC) RESISTANT [6]: 9.5 | Minimal Inhibitory Concentration (MIC) SENSITIVE [7]: 1.7 | Minimal Inhibitory Concentration (MIC) SA 447 [8]: 2 | Minimal Inhibitory Concentration (MIC) SE 270 [10]: 2
